Test results: article PMC7897990, “TriTOX: A novel Trichomonas vaginalis assay platform for high-throughput screening of compound libraries” (International Journal for Parasitology: Drugs and Drug …, 2021)
Read-outs that look alike come from different tables or passages of the source. Non-standard residues stand in square brackets, D forms with d. Residues, ends and D or L forms follow the SMILES beside them. aIle = CC[C@@H](C)[C@H](N)C(=O)O

Columns and labels:
[1] = system: Trichomonas vaginalis G3 trophozoites
[2] = system: Trichomonas vaginalis G3 trophozoites; experiment: microbe, parasite or virus in culture; settings: 48 h
[3] = HTS, parasite screen at 1 µg/mL, replicate 1, raw absorbance
[4] = HTS, parasite screen at 1 µg/mL, replicate 2, raw absorbance
[5] = read-out: T.vaginalis_%inb_Rep1
[6] = read-out: T.vaginalis_%inb_Rep2

With `CC[C@@H](C)[C@@H]1NC(=O)[C@@H](CC(C)C)NC(=O)[C@H](CC(C)C)NC(=O)[C@H](Cc2c[nH]c3ccccc23)NC(=O)CNC(=O)[C@H](CC(N)=O)NC1=O` [Desotamide] (cyclo(GWL[dL][aIle]N)) the T.vaginalis_Absorbance_Rep1 [1, 3] was 0.987, the T.vaginalis_Absorbance_Rep2 [1, 4] was 0.689 and the inhibition of growth at 1 µg/mL [2, 5] was 15%. The inhibition of growth at 1 µg/mL [2, 6] was 4.99%.

`O=C(O)c1cccc(C(=O)O)n1` [Dipicolinic acid] was tested, and the T.vaginalis_Absorbance_Rep1 [1] was 0.967, the T.vaginalis_Absorbance_Rep2 [1] was 0.656 and the inhibition of growth at 1 µg/mL [2, 5] was 13.9%. It also gave an inhibition of growth at 1 µg/mL [2, 6] of 2.6%.

Work on `CC[C@H]1OC(=O)[C@H](C)[C@@H](O[C@H]2C[C@@](C)(OC)[C@@H](O)[C@H](C)O2)[C@H](C)[C@@H](O[C@@H]2O[C@H](C)C[C@H](N(C)C)[C@H]2O)[C@](C)(O)C[C@@H](C)[C@@H]2N[C@@H](COCCOC)O[C@H]([C@H]2C)[C@]1(C)O` [Dirithromycin] yielded a T.vaginalis_Absorbance_Rep1 [1, 3] of 0.867, a T.vaginalis_Absorbance_Rep2 [1, 4] of 0.651 and an inhibition of growth at 1 µg/mL [2, 5] of 8.51%. It also gave an inhibition of growth at 1 µg/mL [2, 6] of 2.24%.

Work on `C[C@@H](O)[C@H]1C(=O)N2C(C(=O)O)=C(S[C@@H]3CN[C@H](CNS(N)(=O)=O)C3)[C@H](C)[C@H]12` [Doripenem] yielded a T.vaginalis_Absorbance_Rep1 [1, 3] of 0.999, an inhibition of growth at 1 µg/mL [2, 5] of 15.6% and an inhibition of growth at 1 µg/mL [2, 6] of 15.6%.

Compound `COc1cccc2c1C(=O)c1c(O)c3c(c(O)c1C2=O)C[C@@](O)(C(=O)CO)C[C@@H]3O[C@H]1C[C@H](N)[C@H](O)[C@H](C)O1` [Doxorubicin] has a T.vaginalis_Absorbance_Rep1 [1, 3] of 0.959, a T.vaginalis_Absorbance_Rep2 [1, 4] of 0.663 and an inhibition of growth at 1 µg/mL [2, 5] of 13.5%. It also gave an inhibition of growth at 1 µg/mL [2, 6] of 3.11%.

`C[C@H]1c2cccc(O)c2C(=O)C2=C(O)[C@]3(O)C(=O)C(C(N)=O)=C(O)[C@@H](N(C)C)[C@@H]3[C@@H](O)[C@@H]21` [Doxycycline] showed a T.vaginalis_Absorbance_Rep1 [1, 3] of 0.879, a T.vaginalis_Absorbance_Rep2 [1, 4] of 0.647 and an inhibition of growth at 1 µg/mL [2, 5] of 9.15%. For the same compound, the inhibition of growth at 1 µg/mL [2, 6] was 1.95%.

Compound `CO[C@H]1C[C@H](O[C@H]2[C@H](C)[C@@H](O[C@@H]3O[C@H](C)C[C@H](N(C)C)[C@H]3O)[C@@H](C)C[C@@]3(CO3)C(=O)[C@H](C)[C@@H](O)[C@@H](C)[C@@H](C)OC(=O)[C@@H]2C)O[C@@H](C)[C@@H]1O` [Oleandomycin] has an inhibition of growth at 1 µg/mL [2, 5] of 13.2% and an inhibition of growth at 1 µg/mL [2, 6] of 4.75%.

In the case of `Cc1cc(O)cc(O)c1C(=O)O` [Orsellinic acid], the inhibition of growth at 1 µg/mL [2, 5] is reported as 12.5% and the inhibition of growth at 1 µg/mL [2, 6] is reported as 14.9%.

Work on `CC1=C\[C@@H](O)CC(=O)Cc2nc(co2)C(=O)N2CCC=C2C(=O)O[C@H](C(C)C)[C@H](C)/C=C/C(=O)NC\C=C\1` [Ostreogrycin A] yielded an inhibition of growth at 1 µg/mL [2, 5] of 13.9% and an inhibition of growth at 1 µg/mL [2, 6] of 14.5%.

With `CN(C)[C@@H]1C(O)=C(C(N)=O)C(=O)[C@@]2(O)C(O)=C3C(=O)c4c(O)cccc4[C@@](C)(O)[C@H]3[C@H](O)[C@@H]12` [Oxytetracycline] the inhibition of growth at 1 µg/mL [2, 5] was 13.3% and the inhibition of growth at 1 µg/mL [2, 6] was 10.7%.

In the case of `OC[C@H]1O[C@@H](n2cnc3c2NC=NC[C@H]3O)C[C@@H]1O` [Pentostatin], the inhibition of growth at 1 µg/mL [2, 5] is reported as 12.7% and the inhibition of growth at 1 µg/mL [2, 6] is reported as 15.8%.

In the case of `Oc1cc(O)cc(O)c1` [Phloroglucinol], the inhibition of growth at 1 µg/mL [2, 5] is reported as 13.9% and the inhibition of growth at 1 µg/mL [2, 6] is reported as 12.3%.

`C[C@@H]1C/C=C/C=C/C=C/C=C/[C@H](O[C@@H]2O[C@H](C)[C@@H](O)[C@H](N)[C@@H]2O)C[C@@H]2O[C@](O)(C[C@@H](O)C[C@H]3O[C@@H]3/C=C/C(=O)O1)C[C@H](O)[C@H]2C(=O)O` [Pimaricin] showed an inhibition of growth at 1 µg/mL [2, 5] of 10.4% and an inhibition of growth at 1 µg/mL [2, 6] of 13.7%.

`CC[C@@H]1/C=C(\C)C[C@H](C)C[C@H](OC)[C@H]2O[C@@](O)(C(=O)C(=O)N3CCCC[C@H]3C(=O)O[C@H](/C(C)=C/[C@@H]3CC[C@H](Cl)[C@H](OC)C3)[C@H](C)[C@@H](O)CC1=O)[C@H](C)C[C@@H]2OC` [Pimecrolimus] gave an inhibition of growth at 1 µg/mL [2, 5] of 13% and an inhibition of growth at 1 µg/mL [2, 6] of 14%.

With `CC[C@H](C)C(=O)O[C@H]1C[C@H](O)C=C2C=C[C@H](C)[C@H](CC[C@@H](O)C[C@@H](O)CC(=O)O)[C@H]21` [Pravastatin sodium] the inhibition of growth at 1 µg/mL [2, 5] was 13% and the inhibition of growth at 1 µg/mL [2, 6] was 13.6%.

With `C/C(=C\C(=O)OCCCCCCCCC(=O)O)C[C@@H]1OC[C@H](C[C@@H]2O[C@H]2[C@@H](C)[C@H](C)O)[C@@H](O)[C@H]1O` [Pseudomonic acid] the inhibition of growth at 1 µg/mL [2, 5] was 11.5% and the inhibition of growth at 1 µg/mL [2, 6] was 11.7%.

Compound `COc1ccc(C[C@H](N)C(=O)N[C@H]2[C@@H](O)[C@H](n3cnc4c(N(C)C)ncnc43)O[C@@H]2CO)cc1` [Puromycin] has an inhibition of growth at 1 µg/mL [2, 5] of 12% and an inhibition of growth at 1 µg/mL [2, 6] of 10.7%.

For `O=C(O)c1ccc[nH]1` [Pyrrole-2-carboxylic acid], the inhibition of growth at 1 µg/mL [2, 5] was 17.3% and the inhibition of growth at 1 µg/mL [2, 6] was 11.6%.

`CN(C)c1cc(NC(=O)CNC(C)(C)C)c(O)c2c1C[C@H]1C[C@H]3[C@H](N(C)C)C(O)=C(C(N)=O)C(=O)[C@@]3(O)C(O)=C1C2=O` [Tigecycline] showed an inhibition of growth at 1 µg/mL [2, 5] of 10% and an inhibition of growth at 1 µg/mL [2, 6] of 5.97%.

For `CC[C@H]1OC(=O)C[C@@H](O)[C@H](C)[C@@H](O[C@@H]2O[C@H](C)[C@@H](O)[C@H](N(C)C)[C@H]2O)[C@@H](CCN2CCCCC2)C[C@@H](C)C(=O)/C=C/C(C)=C/[C@@H]1CN1CCCCC1` [Tildipirosin], the inhibition of growth at 1 µg/mL [2, 5] was 7.13% and the inhibition of growth at 1 µg/mL [2, 6] was 12.7%.

In the case of `CC[C@H]1OC(=O)C[C@@H](O)[C@H](C)[C@@H](O[C@@H]2O[C@H](C)[C@@H](O[C@H]3C[C@@](C)(O)[C@@H](O)[C@H](C)O3)[C@H](N(C)C)[C@H]2O)[C@@H](CC=O)C[C@@H](C)C(=O)/C=C/C(C)=C/[C@@H]1CO[C@@H]1O[C@H](C)[C@@H](O)[C@@H](OC)[C@H]1OC` [Tylosin], the inhibition of growth at 1 µg/mL [2, 5] is reported as 9.02% and the inhibition of growth at 1 µg/mL [2, 6] is reported as 5.48%.

With `O=C(O)/C=C/c1c[nH]cn1` [Urocanic acid] the inhibition of growth at 1 µg/mL [2, 5] was 8.39% and the inhibition of growth at 1 µg/mL [2, 6] was 13.2%.

`C[C@H]1[C@H](C)CC[C@]2(C(=O)O)CC[C@]3(C)C(=CC[C@@H]4[C@@]5(C)CC[C@H](O)C(C)(C)[C@@H]5CC[C@]43C)[C@H]12` [Ursolic acid] showed an inhibition of growth at 1 µg/mL [2, 5] of 7.39% and an inhibition of growth at 1 µg/mL [2, 6] of 10.4%.

`CC(=O)c1c(O)c(C)c(O)c2c1OC1=CC(=O)C(C(C)=O)C(=O)C12C` (stereo not shown) [Usnic acid] was tested, and the inhibition of growth at 1 µg/mL [2, 5] was 8.76% and the inhibition of growth at 1 µg/mL [2, 6] was 13.7%.

`C=C[C@]1(C)C[C@@H](OC(=O)CSC(C)(C)CNC(=O)[C@H](N)C(C)C)[C@]2(C)[C@H](C)CC[C@]3(CCC(=O)[C@H]32)[C@@H](C)[C@@H]1O` [Valnemulin] showed an inhibition of growth at 1 µg/mL [2, 5] of 8.39% and an inhibition of growth at 1 µg/mL [2, 6] of 8.96%.

With `C=CC(C)(C)[C@@]12C[C@H]3C(=O)N[C@H](CC(C)C)C(=O)N3[C@H]1N(C(C)=O)c1ccccc12` [Verrucofortine] the inhibition of growth at 1 µg/mL [2, 5] was 7.92% and the inhibition of growth at 1 µg/mL [2, 6] was 9.69%.

`O=C1NC(c2c[nH]c3ccc(O)cc23)=C/C1=C1\C(=O)Nc2ccccc21` [Violacein] was tested, and the inhibition of growth at 1 µg/mL [2, 5] was 11.2% and the inhibition of growth at 1 µg/mL [2, 6] was 11.8%.

Work on `CO[C@H]1C[C@@H]2CC[C@@H](C)[C@@](O)(O2)C(=O)C(=O)N2CCCC[C@H]2C(=O)O[C@H]([C@H](C)C[C@@H]2CC[C@H](n3cnnn3)[C@H](OC)C2)CC(=O)[C@H](C)/C=C(\C)[C@@H](O)[C@@H](OC)C(=O)[C@H](C)C[C@H](C)/C=C/C=C/C=C/1C` [Zotarolimus] yielded an inhibition of growth at 1 µg/mL [2, 5] of 10.4% and an inhibition of growth at 1 µg/mL [2, 6] of 6.09%.
